Measurements from PubChem BioAssay AID1963982 (Molecular Pharmacology Branch, DTP, NCI, 2024).

Tested on: 313798-341-R-J2-PDC spheroids, viability
Test: Anticancer human tumor 313798-341-R-J2-PDC patient-derived cervical squamous cell carcinoma cell line growth inhibition [PI3K]
Details: spheroids with HUVEC and MSC; for IC50: curve of first compound; for viability, T/C: stronger effect = lower value
Outline: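 Spheroid viability read-out. Co-cultures contained the tumor line plus HUVEC and human MSCs. Each agent was paired with a PI3K inhibitor (inavolisib, alpelisib, duvelisib, copanlisib) across half-log dilutions starting at clinical Cmax, or at 10 microM when Cmax was unknown.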

[1] = second compound 0.00316 µM, first compound 0.0316 µM
[2] = second compound 0.00316 µM, first compound 0.1 µM
[3] = second compound 0.01 µM, first compound 0.0316 µM
[4] = second compound 0.01 µM, first compound 0.1 µM
[5] = second compound 0.0316 µM, first compound 0.0316 µM
[6] = second compound 0.0316 µM, first compound 0.1 µM
[7] = second compound 0.1 µM, first compound 0.0316 µM
[8] = second compound 0.1 µM, first compound 0.1 µM
[9] = second compound 0.316 µM, first compound 0.0316 µM
[10] = second compound 0.316 µM, first compound 0.1 µM
[11] = second compound 1 µM, first compound 0.0316 µM
[12] = second compound 1 µM, first compound 0.1 µM
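Also: spheroids exposed to compounds for seven days.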
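For viability, T/C in this document: 100% = DMSO vehicle control viability.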

## CC(C)n1nc(-c2ccc3oc(N)nc3c2)c2c(N)ncnc21 + CC(Nc1ccc2c(c1)OCCn1cc(N3C(=O)OCC3C(F)F)nc1-2)C(N)=O
Second compound 0.00316 µM
  IC50: 70.2 nM
Second compound 0.01 µM
  IC50: 66.3 nM
Second compound 0.0316 µM
  IC50: 48.8 nM
Second compound 0.1 µM
  IC50: 28.2 nM
Second compound 0.316 µM
  IC50: 14.2 nM
Second compound 1 µM
  IC50: 1.85 nM
Second compound 0.00316 µM, first compound 0.000316 µM
  viability, T/C: 90.9%
Second compound 0.00316 µM, first compound 0.001 µM
  viability, T/C: 99%
Second compound 0.00316 µM, first compound 0.00316 µM
  viability, T/C: 119%
Second compound 0.00316 µM, first compound 0.01 µM
  viability, T/C: 92.8%
[1]
  viability, T/C: 78%
[2]
  viability, T/C: 37.8%
Second compound 0.01 µM, first compound 0.000316 µM
  viability, T/C: 83.8%
Second compound 0.01 µM, first compound 0.001 µM
  viability, T/C: 90.4%
Second compound 0.01 µM, first compound 0.00316 µM
  viability, T/C: 100%
Second compound 0.01 µM, first compound 0.01 µM
  viability, T/C: 103%
[3]
  viability, T/C: 73.2%
[4]
  viability, T/C: 37.2%
Second compound 0.0316 µM, first compound 0.000316 µM
  viability, T/C: 94.6%
Second compound 0.0316 µM, first compound 0.001 µM
  viability, T/C: 92.3%
Second compound 0.0316 µM, first compound 0.00316 µM
  viability, T/C: 92.1%
Second compound 0.0316 µM, first compound 0.01 µM
  viability, T/C: 92.6%
[5]
  viability, T/C: 60.6%
[6]
  viability, T/C: 32.4%
Second compound 0.1 µM, first compound 0.000316 µM
  viability, T/C: 95.6%
Second compound 0.1 µM, first compound 0.001 µM
  viability, T/C: 97.4%
Second compound 0.1 µM, first compound 0.00316 µM
  viability, T/C: 92.2%
Second compound 0.1 µM, first compound 0.01 µM
  viability, T/C: 69.3%
[7]
  viability, T/C: 49.6%
[8]
  viability, T/C: 33.2%
Second compound 0.316 µM, first compound 0.000316 µM
  viability, T/C: 83.4%
Second compound 0.316 µM, first compound 0.001 µM
  viability, T/C: 70.9%
Second compound 0.316 µM, first compound 0.00316 µM
  viability, T/C: 64.8%
Second compound 0.316 µM, first compound 0.01 µM
  viability, T/C: 54.7%
[9]
  viability, T/C: 43.5%
[10]
  viability, T/C: 25.1%
Second compound 1 µM, first compound 0.000316 µM
  viability, T/C: 55.3%
Second compound 1 µM, first compound 0.001 µM
  viability, T/C: 53.1%
Second compound 1 µM, first compound 0.00316 µM
  viability, T/C: 45%
Second compound 1 µM, first compound 0.01 µM
  viability, T/C: 42.1%
[11]
  viability, T/C: 32.9%
[12]
  viability, T/C: 14.3%

## CC1(C)CCC(CN2CCN(c3ccc(C(=O)NS(=O)(=O)c4ccc(NCC5CCOCC5)c([N+](=O)[O-])c4)c(Oc4cnc5[nH]ccc5c4)c3)CC2)=C(c2ccc(Cl)cc2)C1 + CC(Nc1ccc2c(c1)OCCn1cc(N3C(=O)OCC3C(F)F)nc1-2)C(N)=O
Second compound 0.00316 µM
  IC50: 5510 nM
Second compound 0.01 µM
  IC50: 5660 nM
Second compound 0.0316 µM
  IC50: 5410 nM
Second compound 0.1 µM
  IC50: 4710 nM
Second compound 0.316 µM
  IC50: 2190 nM
Second compound 1 µM
  IC50: 609 nM
[1]
  viability, T/C: 93.1%
[2]
  viability, T/C: 92.4%
Second compound 0.00316 µM, first compound 0.316 µM
  viability, T/C: 95.5%
Second compound 0.00316 µM, first compound 1 µM
  viability, T/C: 89.4%
Second compound 0.00316 µM, first compound 3.16 µM
  viability, T/C: 81.3%
Second compound 0.00316 µM, first compound 10 µM
  viability, T/C: 16.9%
[3]
  viability, T/C: 100%
[4]
  viability, T/C: 93.2%
Second compound 0.01 µM, first compound 0.316 µM
  viability, T/C: 98.5%
Second compound 0.01 µM, first compound 1 µM
  viability, T/C: 90.7%
Second compound 0.01 µM, first compound 3.16 µM
  viability, T/C: 84.2%
Second compound 0.01 µM, first compound 10 µM
  viability, T/C: 16.5%
[5]
  viability, T/C: 92.6%
[6]
  viability, T/C: 86.3%
Second compound 0.0316 µM, first compound 0.316 µM
  viability, T/C: 89.5%
Second compound 0.0316 µM, first compound 1 µM
  viability, T/C: 93.2%
Second compound 0.0316 µM, first compound 3.16 µM
  viability, T/C: 78.3%
Second compound 0.0316 µM, first compound 10 µM
  viability, T/C: 17%
[7]
  viability, T/C: 94.1%
[8]
  viability, T/C: 102%
Second compound 0.1 µM, first compound 0.316 µM
  viability, T/C: 90.4%
Second compound 0.1 µM, first compound 1 µM
  viability, T/C: 90.9%
Second compound 0.1 µM, first compound 3.16 µM
  viability, T/C: 67.2%
Second compound 0.1 µM, first compound 10 µM
  viability, T/C: 17%
[9]
  viability, T/C: 79.7%
[10]
  viability, T/C: 69.7%
Second compound 0.316 µM, first compound 0.316 µM
  viability, T/C: 78.2%
Second compound 0.316 µM, first compound 1 µM
  viability, T/C: 60.1%
Second compound 0.316 µM, first compound 3.16 µM
  viability, T/C: 44.8%
Second compound 0.316 µM, first compound 10 µM
  viability, T/C: 16.5%
[11]
  viability, T/C: 51.6%
[12]
  viability, T/C: 49.7%
Second compound 1 µM, first compound 0.316 µM
  viability, T/C: 51.8%
Second compound 1 µM, first compound 1 µM
  viability, T/C: 49.2%
Second compound 1 µM, first compound 3.16 µM
  viability, T/C: 35.8%
Second compound 1 µM, first compound 10 µM
  viability, T/C: 14%
